The results in this text go back to patent US20160303095A1, “METHODS OF TREATING HEPATITIS B VIRUS” (Gilead Sciences, Inc., priority 2015, published 2016).

Read-outs that look alike come from different tables or passages of the source.

One data set has as its target T1, KDM6B (Homo sapiens, UniProt O15054).
T1 construct: host or cells: Sf9 cells
The experiment in a line: Biochemical KDM inhibition assay (LANCE), KDM6B. The note with it: read-out: Biochemical IC50 KDM 6B. The method, then:
Representative compounds were characterized for their inhibition of KDM5 using biotinylated histone substrates. Inhibition was measured in vitro (CEREP Poitier, Le Bois l'Evêque, France) following experimental conditions described in Table 2. Briefly, the test compound, reference compound or water (control) was mixed with about 2-20 ng of recombinant, Human enzymes expressed in Sf9 cells in a buffer containing 45 mM Hepes/Tris (pH 7), 5 μM FAS, 100 μM ascorbic acid, 10 μM 2-oxoglutarate, 0.01% Tween 20 and 0.01% BSA. Thereafter, the reaction was initiated by adding the biotin-labeled substrate, and the mixture was incubated for 10-30 min at room temperature. For basal control measurements, the enzyme was omitted from the reaction mixture. Following incubation the reaction was stopped by adding 1 mM EDTA. After 5 min, the anti-methyl histone antibody labeled with europium chelate and the Ulight streptavidine (Perkin Elmer Waltham, Mass.) were added. After 60 min more, the fluorescence transfer was measured at λex=320 nm and λem=620 and λem=665 nm using a microplate reader (Envision, Perkin Elmer) (LANCE). The enzyme activity was determined by dividing the signal measured at λem=665 nm by that measured at 620 nm (ratio).
A general note: TR-FRET usually uses a lanthanide donor and a delayed reading to cut background.

Data set [1] is described as follows: Alamar Blue cell viability assay. Format: cell-based. The following applies: human; D 28; PHH donor 8181; virus 21p. (In general: Resazurin is reduced to fluorescent resorufin, in cell work by metabolically active cells.)
The next data set has as its system HBV. The experiment in a line: PHH screening protocol: HBsAg and HBeAg levels by MSD ELISA. Format: cell-based, Hepatitis B Virus. The note with it: for EC50: Hepatitis B virus; for time dependency of anti HBV activity: PHH donor 8181 infected with patient virus 21p (GTA). A general note: ELISA stands for enzyme-linked immunosorbent assay.
Where [2] appears, read: read-out: HBeAg EC50, D 8, PHH donor 8181, virus 21p.
The mark [3] stands for this setting: read-out: HBeAg EC50, D 13, PHH donor 8181, virus 21p.
[4] abbreviates: read-out: HBeAg EC50, D 17, PHH donor 8181, virus 21p.
[5] abbreviates: read-out: HBeAg EC50, D 22, PHH donor 8181, virus 21p.
Where [6] appears, read: read-out: HBeAg EC50, D 27, PHH donor 8181, virus 21p.
Where [7] appears, read: read-out: HBeAg EC50, HBV-infected PHH.
The mark [8] stands for this setting: read-out: HBsAg EC50, D 8, PHH donor 8181, virus 21p.
Setting [9] is: read-out: HBsAg EC50, D 13, PHH donor 8181, virus 21p.
Where [10] appears, read: read-out: HBsAg EC50, D 17, PHH donor 8181, virus 21p.
The mark [11] stands for this setting: read-out: HBsAg EC50, D 22, PHH donor 8181, virus 21p.
The mark [12] stands for this setting: read-out: HBsAg EC50, D 27, PHH donor 8181, virus 21p.
Setting [13] is: read-out: HBsAg EC50, HBV-infected PHH.

T1 sequence (O15054 whole entry): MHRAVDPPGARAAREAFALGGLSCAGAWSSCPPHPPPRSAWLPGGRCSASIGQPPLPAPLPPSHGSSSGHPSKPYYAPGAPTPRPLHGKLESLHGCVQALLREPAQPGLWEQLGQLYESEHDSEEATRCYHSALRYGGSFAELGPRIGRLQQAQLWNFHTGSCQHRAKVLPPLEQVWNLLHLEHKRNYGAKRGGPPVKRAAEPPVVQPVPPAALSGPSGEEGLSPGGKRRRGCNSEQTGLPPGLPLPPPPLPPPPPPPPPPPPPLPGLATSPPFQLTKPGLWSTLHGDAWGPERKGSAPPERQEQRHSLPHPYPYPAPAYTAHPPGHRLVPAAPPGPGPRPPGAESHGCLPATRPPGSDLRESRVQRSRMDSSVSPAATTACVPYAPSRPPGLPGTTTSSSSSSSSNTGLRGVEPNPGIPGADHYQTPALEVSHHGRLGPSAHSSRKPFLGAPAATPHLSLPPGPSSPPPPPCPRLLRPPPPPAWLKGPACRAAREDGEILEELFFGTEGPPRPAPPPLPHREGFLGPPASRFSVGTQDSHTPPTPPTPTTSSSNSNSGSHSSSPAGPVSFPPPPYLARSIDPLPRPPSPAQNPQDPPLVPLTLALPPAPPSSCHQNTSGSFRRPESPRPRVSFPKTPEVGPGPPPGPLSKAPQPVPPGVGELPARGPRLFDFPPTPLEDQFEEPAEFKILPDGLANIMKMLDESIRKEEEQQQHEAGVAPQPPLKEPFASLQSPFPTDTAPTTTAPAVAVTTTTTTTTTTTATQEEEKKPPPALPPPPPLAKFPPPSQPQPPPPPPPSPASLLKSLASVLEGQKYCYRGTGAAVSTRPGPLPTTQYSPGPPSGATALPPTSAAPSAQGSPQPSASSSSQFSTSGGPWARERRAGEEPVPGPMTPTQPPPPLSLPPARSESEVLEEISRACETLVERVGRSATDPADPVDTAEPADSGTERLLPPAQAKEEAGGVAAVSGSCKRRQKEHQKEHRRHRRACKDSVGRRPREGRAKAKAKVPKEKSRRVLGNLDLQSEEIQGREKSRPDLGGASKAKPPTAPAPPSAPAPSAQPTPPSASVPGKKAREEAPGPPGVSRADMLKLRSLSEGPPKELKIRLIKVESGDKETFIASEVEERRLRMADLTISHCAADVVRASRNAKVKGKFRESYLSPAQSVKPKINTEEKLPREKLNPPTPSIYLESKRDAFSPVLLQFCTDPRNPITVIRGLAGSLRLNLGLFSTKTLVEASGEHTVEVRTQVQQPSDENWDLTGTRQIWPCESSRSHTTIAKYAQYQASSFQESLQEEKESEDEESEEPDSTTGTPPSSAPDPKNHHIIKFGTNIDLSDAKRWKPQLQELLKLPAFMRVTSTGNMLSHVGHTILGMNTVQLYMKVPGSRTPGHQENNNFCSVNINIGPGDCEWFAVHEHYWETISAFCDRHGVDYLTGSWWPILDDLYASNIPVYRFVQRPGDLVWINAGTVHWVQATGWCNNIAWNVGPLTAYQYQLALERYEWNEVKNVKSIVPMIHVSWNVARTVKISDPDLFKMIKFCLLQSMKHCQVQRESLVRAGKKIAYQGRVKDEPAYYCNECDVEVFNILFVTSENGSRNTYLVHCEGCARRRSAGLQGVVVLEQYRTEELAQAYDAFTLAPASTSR

Turning to `Nc1c(C(=O)O)ccnc1C(=O)O` [Example 7, reference compound], the IC50 on KDM6B was 7800 nM. Also, in data set [1], the CC50 at 28 day is > 50000 nM. Moreover, the concentration giving a half-maximal response (EC50) in the data set on HBV (setting [2]) was > 50000 nM; in the data set on HBV (setting [3]), 4030 nM; with HBV (setting [4]), 1100 nM; in the data set with HBV (setting [5]), 90 nM; in the data set with HBV (setting [6]), 60 nM; in the data set on HBV (read-out: HBeAg EC50, D 31, PHH donor 8181, virus 21p), 60 nM. Moreover, the EC50 was 642 nM with HBV (setting [7]); > 50000 nM in the data set on HBV (setting [8]); 990 nM in the data set on HBV (setting [9]); 580 nM with HBV (setting [10]); 70 nM with HBV (setting [11]); 60 nM with HBV (setting [12]). In addition, the EC50 in the data set on HBV (read-out: HBsAg EC50, D 31, PHH donor 8181, virus 21p) is 60 nM; in the data set on HBV (setting [13]) it was 481 nM. Also, in the data set on HBV, the “time dependency of anti HBV activity” value is “time dependent”.

Regarding `CCN(CCN(C)C)C(=O)CNCc1cc(C(=O)O)ccn1` [Example 9], the IC50 at KDM6B was determined as 4100 nM. Further, the CC50 at 28 day in data set [1] was > 100000 nM. The EC50 with HBV (setting [2]) is > 100000 nM; in the data set on HBV (setting [3]), 849 nM; with HBV (setting [4]) it was 267 nM; in the data set with HBV (setting [5]), 153 nM; in the data set on HBV (setting [6]), 300 nM; with HBV (setting [7]), 1630 nM. In addition, the EC50 with HBV (setting [8]) was > 100000 nM; with HBV (setting [9]), 2330 nM; with HBV (setting [10]), 369 nM; in the data set on HBV (setting [11]), 200 nM; in the data set with HBV (setting [12]) it was 400 nM; with HBV (setting [13]), 2020 nM. In addition, the “time dependency of anti HBV activity” value with HBV is given as “time dependent”.

The IC50 is the point on the concentration scale where inhibition reaches its midpoint. What is called CC50 is the concentration that lowers cell viability or growth by half. Lower therefore signals harm at low concentration. As usually defined, the EC50 is the midpoint of the concentration-response curve.
